In ChEMBL document CHEMBL6074689 (Eur J Med Chem, 2025):
Calls of active or inactive are those of the source. The rule behind the calls is not given here.

How the values were obtained:
Acetylcholinesterase [1] = target: T1, Acetylcholinesterase (Homo sapiens, UniProt P22303); experiment: Inhibition of human recombinant AChE expressed in HEK293 cells using acetylthiocholine iodide as substrate preincubated with compound for 30 mins followed by substrate addition and measured after 30 mins by DTNB reagent based Ellman's method
Cholinesterase = Cholinesterase (Equus caballus, UniProt P81908); experiment: Inhibition of equine serum BChE using acetylthiocholine iodide as substrate preincubated with compound for 30 mins followed by substrate addition and measured after 30 mins by DTNB reagent based Ellman's method
Acetylcholinesterase [2] = target: T1, Acetylcholinesterase; experiment: Displacement of propidium iodide from human AChE PAS assessed as reduction in fluorescence intensity at 5 uM incubated for 6 hrs by fluorescence based analysis relative to control; design: scale not given: the % may be the effect or the level left
Acetylcholinesterase [3] = target: T1, Acetylcholinesterase; experiment: Displacement of propidium iodide from human AChE PAS assessed as reduction in fluorescence intensity at 1 uM incubated for 6 hrs by fluorescence based analysis relative to control; design: scale not given: the % may be the effect or the level left
Acetylcholinesterase [4] = target: T1, Acetylcholinesterase; experiment: Displacement of propidium iodide from human AChE PAS assessed as reduction in fluorescence intensity at 0.1 uM incubated for 6 hrs by fluorescence based analysis relative to control; design: scale not given: the % may be the effect or the level left
Acetylcholinesterase [5] = target: T1, Acetylcholinesterase; experiment: Displacement of propidium iodide from human AChE PAS assessed as reduction in fluorescence intensity at 0.01 uM incubated for 6 hrs by fluorescence based analysis relative to control; design: scale not given: the % may be the effect or the level left
[6] = Antioxidant activity assessed as DPPH radical scavenging activity incubated for 30 mins; assay type: functional
PC-12 [7] = experiment: Cytotoxicity against rat PC-12 cells assessed as cell viability upto 20 uM measured for 24 hrs by MTT assay; assay type: toxicity, cell-based; settings: pc-12, 24 h
PC-12 [8] = experiment: Neuroprotective activity against H2O2-induced oxidative stress in rat PC-12 cells assessed as cell viability at 1 to 20 uM preincubated with compound for 24 hrs and followed by H2O2 induction and measured after 24 hrs by MTT assay; assay type: functional, cell-based; settings: dose 1-20 µM, time 48.0 hrs
PC-12 [9] = experiment: Induction of apoptosis in rat PC-12 cells assessed as viable cells at 2.5 uM incubated for 24 hrs by Annexin V/PI staining based flow cytometry analysis (reference value: 82.8%); assay type: functional; settings: read-out: Activity
PC-12 [10] = experiment: Induction of apoptosis in rat PC-12 cells assessed as viable cells at 10 uM incubated for 24 hrs by Annexin V/PI staining based flow cytometry analysis (reference value: 82.8%); assay type: functional; settings: read-out: Activity
PC-12 [11] = experiment: Induction of apoptosis in rat PC-12 cells assessed as viable cells at 5 uM incubated for 24 hrs by Annexin V/PI staining based flow cytometry analysis (reference value: 82.8%); assay type: functional; settings: read-out: Activity
PC-12 [12] = experiment: Induction of apoptosis in rat PC-12 cells assessed as viable cells at 20 uM incubated for 24 hrs by Annexin V/PI staining based flow cytometry analysis (reference value: 82.8%); assay type: functional; settings: read-out: Activity
[13] = Metal chelating activity assessed as compound-Fe2+ complex formation by measuring increase in absorption intensity at 300 uM in presence of by UV-vis spectrometry
[14] = Metal chelating activity assessed as compound-Cu2+ complex formation by measuring increase in absorption intensity at 300 uM in presence of by UV-vis spectrometry
[15] = Permeability of the compound across blood brain barrier; assay type: ADME; settings: read-out: BBB
[16] = target: Amyloid-beta precursor protein (Homo sapiens) (UniProt P05067); experiment: Inhibition of amyloid beta (1 to 42) (unknown origin) self induced aggregation at 1.521 uM incubated for 72 hrs by ThT fluorescence based assay
[17] = target: Amyloid-beta precursor protein (Homo sapiens) (UniProt P05067); experiment: Inhibition of amyloid beta (1 to 42) (unknown origin) self induced aggregation at 1.521 uM incubated for 72 hrs by transmission electron microscopic analysis
[18] = Toxicity in Drosophila melanogaster Oregon R-positive assessed as reduction in eclosed flies at 40 uM measured for 15 days relative to control; design: scale not given: the % may be the effect or the level left; settings: 360 h, time 15 day
[19] = Acute toxicity in Swiss albino mouse assessed as body weight gain at 175 mg/kg, po administered for 14 days; assay type: organism-based; settings: in vivo, 336 h, time 14 day
Drosophila melanogaster [20] = experiment: Anti-alzheimer activity in ey-GAL4 driven UAS-amyloid beta (1 to 42) induced Drosophila melanogaster Oregon R-positive assessed as fold increase in superoxide level at 10 uM by fluorescence based analysis; assay type: functional
Drosophila melanogaster [21] = experiment: Inhibition of oxidative stress in y-GAL4 driven UAS-amyloid beta (1 to 42) induced Drosophila melanogaster Oregon R-positive assessed as fold increase in ROS level at 10 to 20 uM incubated for 30 mins by H2DCFDA staining based analysis; assay type: functional; settings: dose 10-20 µM, 0.5 h
[22] = Acute toxicity in Swiss albino mouse assessed as animal survival at 175 mg/kg, po administered for 14 days; assay type: organism-based; settings: in vivo, 336 h, time 14 day
[23] = Acute toxicity in Swiss albino mouse assessed as abnormal behavior at 175 mg/kg, po administered for 14 days; assay type: organism-based; settings: in vivo, 336 h, time 14 day
[24] = Acute toxicity in Swiss albino mouse assessed as convulsion at 175 mg/kg, po administered for 14 days; assay type: organism-based; settings: in vivo, 336 h, time 14 day
[25] = Acute toxicity in Swiss albino mouse assessed as tremor at 175 mg/kg, po administered for 14 days; assay type: organism-based; settings: in vivo, 336 h, time 14 day
Mus musculus [26] = experiment: (§1) Antialzheimer activity in scopolamine-induced Swiss albino mouse model assessed as decrease in escape latency at 0.3 to 0.5 mg/kg, po preincubated with compound for 30 mins followed by scopolamine induction and measured after 5 days by Morris water maze test; assay type: functional, organism-based; settings: dose 0.3-0.5 mg/kg, time 7230.0 min
Mus musculus [27] = experiment: as §1, with “improvement” for “decrease”, “memory retention by measuring time spent in platform quadrant” for “escape latency”; assay type: functional, organism-based; settings: dose 0.3-0.5 mg/kg, time 7230.0 min
Mus musculus [28] = experiment: Antialzheimer activity in scopolamine-induced Swiss albino mouse model assessed as reduction in AChE level at 0.3 to 0.5 mg/kg, po preincubated with compound for 30 mins followed by scopolamine induction and measured after 30 mins; assay type: functional, organism-based; settings: dose 0.3-0.5 mg/kg, time 1.0 hrs
Mus musculus [29] = experiment: Antialzheimer activity in scopolamine-induced Swiss albino mouse model assessed as reduction in BChE level at 0.3 to 0.5 mg/kg, po preincubated with compound for 30 mins followed by scopolamine induction and measured after 30 mins; assay type: functional, organism-based; settings: dose 0.3-0.5 mg/kg, time 1.0 hrs
Mus musculus [30] = experiment: Antioxidant activity against scopolamine-induced Swiss albino mouse model assessed as increase in SOD level at 0.3 to 0.5 mg/kg, po by absorbance based analysis; assay type: functional, organism-based; settings: dose 0.3-0.5 mg/kg
Mus musculus [31] = experiment: Antioxidant activity against scopolamine-induced Swiss albino mouse model assessed as increase in catalase level in brain at 0.3 to 0.5 mg/kg, po by absorbance based analysis; assay type: functional, organism-based; settings: dose 0.3-0.5 mg/kg
Mus musculus [32] = experiment: Antioxidant activity against scopolamine-induced Swiss albino mouse model assessed as increase in MDA level at 0.3 to 0.5 mg/kg, po by absorbance based analysis; assay type: functional, organism-based; settings: dose 0.3-0.5 mg/kg
Mus musculus [33] = experiment: Neuroprotective activity against scopolamine-induced Swiss albino mouse model assessed as increase in CREB1 mRNA level at 0.3 to 0.5 mg/kg, po measured after 6 days by RT-PCR analysis; assay type: functional, organism-based; settings: dose 0.3-0.5 mg/kg, time 6.0 day
Mus musculus [34] = experiment: Neuroprotective activity against scopolamine-induced Swiss albino mouse model assessed as increase in C-FOS mRNA level at 0.3 to 0.5 mg/kg, po measured after 6 days by RT-PCR analysis; assay type: functional, organism-based; settings: dose 0.3-0.5 mg/kg, time 6.0 day
Mus musculus [35] = experiment: Neuroprotective activity against scopolamine-induced Swiss albino mouse model assessed as increase in NR4A2 mRNA level at 0.3 to 0.5 mg/kg, po measured after 6 days by RT-PCR analysis; assay type: functional, organism-based; settings: dose 0.3-0.5 mg/kg, time 6.0 day
Mus musculus [36] = experiment: Neuroprotective activity against scopolamine-induced Swiss albino mouse model assessed as effect on GAP43 mRNA level at 0.3 to 0.5 mg/kg, po measured after 6 days by RT-PCR analysis; assay type: functional, organism-based; settings: dose 0.3-0.5 mg/kg, time 6.0 day
Mus musculus [37] = experiment: Neuroprotective activity against scopolamine-induced Swiss albino mouse model assessed as effect on PSD95 mRNA level at 0.3 to 0.5 mg/kg, po measured after 6 days by RT-PCR analysis; assay type: functional, organism-based; settings: dose 0.3-0.5 mg/kg, time 6.0 day
Mus musculus [38] = experiment: Neuroprotective activity against scopolamine-induced Swiss albino mouse model assessed as upregulation of PKA mRNA level at 0.3 to 0.5 mg/kg, po measured after 6 days by RT-PCR analysis; assay type: functional, organism-based; settings: dose 0.3-0.5 mg/kg, time 6.0 day
Mus musculus [39] = experiment: Neuroprotective activity against scopolamine-induced Swiss albino mouse model assessed as upregulation of MMP9 mRNA level at 0.3 to 0.5 mg/kg, po measured after 6 days by RT-PCR analysis; assay type: functional, organism-based; settings: dose 0.3-0.5 mg/kg, time 6.0 day
[40] = Antioxidant activity assessed as DPPH radical scavenging activity at 200 uM incubated for 30 mins relative to control; assay type: functional

Sequence of Cholinesterase (P81908 whole entry): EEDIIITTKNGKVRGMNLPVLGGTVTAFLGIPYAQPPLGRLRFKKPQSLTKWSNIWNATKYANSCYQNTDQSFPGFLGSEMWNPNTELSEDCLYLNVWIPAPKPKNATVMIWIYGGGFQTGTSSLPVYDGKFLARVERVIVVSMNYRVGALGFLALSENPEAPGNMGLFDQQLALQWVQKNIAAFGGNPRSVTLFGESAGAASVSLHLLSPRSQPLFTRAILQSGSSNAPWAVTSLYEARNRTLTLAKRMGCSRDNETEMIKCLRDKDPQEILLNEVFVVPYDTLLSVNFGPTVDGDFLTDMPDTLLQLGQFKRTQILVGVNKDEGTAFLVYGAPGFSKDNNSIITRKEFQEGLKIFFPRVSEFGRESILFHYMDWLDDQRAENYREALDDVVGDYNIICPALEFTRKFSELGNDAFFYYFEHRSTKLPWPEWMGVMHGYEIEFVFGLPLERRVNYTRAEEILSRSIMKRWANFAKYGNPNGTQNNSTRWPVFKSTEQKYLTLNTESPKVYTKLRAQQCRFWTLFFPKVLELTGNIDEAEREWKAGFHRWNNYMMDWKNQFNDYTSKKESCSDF
T1 sequence (P22303 whole entry): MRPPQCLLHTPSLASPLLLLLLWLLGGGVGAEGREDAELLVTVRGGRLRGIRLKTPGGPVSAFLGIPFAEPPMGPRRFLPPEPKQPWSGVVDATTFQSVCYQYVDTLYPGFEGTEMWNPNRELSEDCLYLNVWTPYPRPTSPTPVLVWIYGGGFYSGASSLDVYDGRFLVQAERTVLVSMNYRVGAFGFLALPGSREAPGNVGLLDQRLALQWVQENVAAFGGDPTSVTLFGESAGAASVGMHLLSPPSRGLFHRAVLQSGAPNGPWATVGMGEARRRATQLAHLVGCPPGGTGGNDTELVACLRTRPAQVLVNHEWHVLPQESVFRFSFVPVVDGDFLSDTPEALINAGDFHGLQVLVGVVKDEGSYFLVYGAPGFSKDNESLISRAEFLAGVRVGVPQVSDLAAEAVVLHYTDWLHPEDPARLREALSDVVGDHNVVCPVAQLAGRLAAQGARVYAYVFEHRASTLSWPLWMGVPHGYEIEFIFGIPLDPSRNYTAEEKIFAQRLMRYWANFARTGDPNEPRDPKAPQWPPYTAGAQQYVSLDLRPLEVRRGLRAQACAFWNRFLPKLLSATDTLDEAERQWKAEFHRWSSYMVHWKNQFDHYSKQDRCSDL
Sequence of Amyloid-beta precursor protein (Homo sapiens) (P05067 whole entry): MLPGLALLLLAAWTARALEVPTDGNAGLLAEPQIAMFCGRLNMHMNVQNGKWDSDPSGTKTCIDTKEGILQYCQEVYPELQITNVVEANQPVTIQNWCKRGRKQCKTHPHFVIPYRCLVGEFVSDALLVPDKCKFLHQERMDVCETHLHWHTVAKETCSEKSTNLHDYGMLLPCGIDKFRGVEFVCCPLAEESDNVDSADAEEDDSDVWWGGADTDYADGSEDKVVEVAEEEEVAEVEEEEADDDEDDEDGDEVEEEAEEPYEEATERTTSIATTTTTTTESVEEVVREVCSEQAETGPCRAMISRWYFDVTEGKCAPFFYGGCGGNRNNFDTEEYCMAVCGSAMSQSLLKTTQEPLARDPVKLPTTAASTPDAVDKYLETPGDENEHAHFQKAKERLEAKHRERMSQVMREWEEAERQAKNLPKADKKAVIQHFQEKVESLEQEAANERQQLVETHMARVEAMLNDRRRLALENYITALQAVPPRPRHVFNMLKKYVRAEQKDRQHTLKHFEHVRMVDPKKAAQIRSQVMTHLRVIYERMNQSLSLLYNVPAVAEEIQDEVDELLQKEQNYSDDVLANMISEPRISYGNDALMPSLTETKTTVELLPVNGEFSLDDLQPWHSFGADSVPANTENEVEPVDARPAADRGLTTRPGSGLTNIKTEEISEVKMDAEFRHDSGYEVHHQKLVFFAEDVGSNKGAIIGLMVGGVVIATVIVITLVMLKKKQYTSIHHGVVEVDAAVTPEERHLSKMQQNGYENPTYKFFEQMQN

C[C@@H](c1cccc(OC(=O)NCCc2c[nH]c3ccc(O)cc23)c1)N(C)C
IC50 (Acetylcholinesterase [1]): 0.99 nM
IC50 (Cholinesterase): 27.8 nM
Activity (Acetylcholinesterase [2]): 26.2%
Activity (Acetylcholinesterase [3]): 18.3%
Activity (Acetylcholinesterase [4]): 5.56%
Activity (Acetylcholinesterase [5]): 3.54%
IC50 [6]: 22900 nM
Activity (PC-12 [7]): Non-toxic
Activity (PC-12 [8]): Active
viability at 2.5 µM (PC-12 [9]): 65.9%
viability at 10 µM (PC-12 [10]): 63.3%
viability at 5 µM (PC-12 [11]): 71.3%
viability at 20 µM (PC-12 [12]): 80.7%
Activity [13]: inactive
Activity [14]: inactive
Papp [15]: 11.5 ×10⁻⁶ cm/s
inhibition [16]: 100%
inhibition [17]: Active
Activity [18]: 9%
Activity [19]: Non-toxic
fold change (FC) (Drosophila melanogaster [20]): 1.25
fold change (FC) (Drosophila melanogaster [21]): 1.8
Activity [22]: Non-toxic
Activity [23]: Non-toxic
Activity [24]: Non-toxic
Activity [25]: Non-toxic
Activity (Mus musculus [26]): Active
Activity (Mus musculus [27]): Active
Activity (Mus musculus [28]): Active
Activity (Mus musculus [29]): Active
Activity (Mus musculus [30]): Active
Activity (Mus musculus [31]): Active
Activity (Mus musculus [32]): Active
Activity (Mus musculus [33]): Active
Activity (Mus musculus [34]): Active
Activity (Mus musculus [35]): Active
Activity (Mus musculus [36]): Active
Activity (Mus musculus [37]): Active
Activity (Mus musculus [38]): Active
Activity (Mus musculus [39]): Active

COc1ccc2[nH]cc(CCNC(=O)Oc3cccc([C@H](C)N(C)C)c3)c2c1
IC50 (Acetylcholinesterase [1]): 21.4 nM
IC50 (Cholinesterase): 3.15 nM
Activity [40]: 19.8%

Cc1ccc2[nH]cc(CCNC(=O)Oc3cccc([C@H](C)N(C)C)c3)c2c1
IC50 (Acetylcholinesterase [1]): 54.7 nM
IC50 (Cholinesterase): 26.5 nM

C[C@@H](c1cccc(OC(=O)NCCc2c[nH]c3ccccc23)c1)N(C)C
IC50 (Acetylcholinesterase [1]): 22.2 nM
IC50 (Cholinesterase): 11.1 nM

CC(c1cccc(OC(=O)NCCc2c[nH]c3ccccc23)c1)N(C)C (stereo unspecified)
IC50 (Acetylcholinesterase [1]): 24.5 nM
IC50 (Cholinesterase): 14.8 nM

Cc1ccc2[nH]cc(CCNC(=O)Oc3cccc(C(C)N(C)C)c3)c2c1 (stereo unspecified)
IC50 (Acetylcholinesterase [1]): 73.3 nM
IC50 (Cholinesterase): 38.7 nM
